Reference: patent US5484778A, “Phthalocyanine photosensitizers for photodynamic therapy and methods for their use” (priority 1993, dated 1996)
Entries after “also recorded” stand apart in the source; their conditions may differ. Read-outs that look alike come from different tables or passages of the source.

Key:
L5178Y-R (LY-R) cells = test: Clonogenic survival of PDT-treated L5178Y-R cells (Tables 4 and 5, FIG. 3); type: cell-based, mouse; conditions: for viability at 0.5 µM: Mus musculus, read-out: normalized plating efficiency / percent survival, 0.5 μM
Description: Mouse lymphoma L5178y-R (hereinafter also referred to as "LY-R") cells were grown in suspension culture as described in Ramakrishnan N., Oleinick, N. L. Clay, M. E., Horng, M. F., Antunez, A. R., and Evans H. H., DNA lesions and DNA degradation in mouse lymphoma L5178Y cells after photodynamic treatment sensitized by chloroaluminum phthalocyanine. Photochem. Photobiol. 50, 373-378, 1989 and Agarwal, M. L., Clay, M. E., Harvey, E. J., Evans, H. H., Antunez, A. R., and Oleinick, N. L. Photodynamic therapy induces rapid cell death by apoptosis in L5178Y mouse lymphoma cells. Cancer Res., 51, 5993-5996, 1991.
The cells were used while in exponential growth. Stock solutions of either 0.5 or 1 mM of PcIV, PcXII, PcX, PcXVIII were prepared in dimethylformamide unless otherwise indicated and added to the 10 mL medium at a rate of 1 μL per mL. After allowing 18 hours for uptake of the phthalocyanine into the cells, the flasks containing the cultures were placed on a glass exposure tray above a 500-W tungsten-halogen lamp. The exposure tray was fitted with a 600-nm high-pass filter. Flasks were exposed to various fluences of red light (up to 30 kJ/m^2) at a fluence rate of approximately 74 W/m^2). After irradiation, the cells were collected by centrifugation.
For measurement of clonogenic cell survival, aliquots were plated in medium containing soft agar as described in Ramakrishnan N., Oleinick, N. L. Clay, M. E., Horng, M. F., Antunez, A. R., and Evans H. H., DNA lesions and DNA degradation in mouse lymphoma L5178Y cells after photodynamic treatment sensitized by chloroaluminum phthalocyanine. Photochem. Photobiol. 50, 373-378, 1989. The aliquots were plated in sufficient numbers to produce 50-200 colonies. The dishes were kept in an incubator at 37° C. in an atmosphere of 5% CO2 and 95% air for 10-14 days to allow viable cells to form colonies. Colonies were counted by eye. Controls treated with the phthalocyanine alone had plating efficiencies of ~90%. The plating efficiencies of the treated cells are normalized to the plating efficiencies of control cells in each experiment. For measurement of the induction of apoptosis, DNA was isolated from the treated and control cells 2 hours after photodynamic therapy, subjected to electrophoresis on 1.5% agarose, stained with ethidium bromide, and visualized by UV transillumination, as described in Agarwal et. al. The results are shown in Tables 4, 5 and 6 and in FIG. 3.
In Table 4 each phthalocyanine was present at 0.5 μM, and the normalized plating efficiencies are presented as mean and standard deviation at each fluence tested. […] This relative activity of these four phthalocyanines is the same as obtained from screening in V79 cells.
PcXII when present in the culture medium at 0.5 μM requires less light, that is the lowest fluence, to kill either 50% […] of the cells. PcIV is about 80% as active as PcXII, PcX is 44% as active as PcXII and PcXVIII is 22% as active as PcXII.

[1] = test system: Chinese hamster V79-379 cells; test: Uptake of phthalocyanines by V79 cells relative to AlPcCl (Table 1); type: cell-based; conditions: for Uptake, efficiency relative to 1 μM AlPcCl: 18 h
Description: Chinese hamster V79-379 lung fibroblasts were grown in monolayer culture in McCoy's 5A medium (Gibco Laboratories, Grand Island, N.Y.) augmented with 10% calf serum and buffered with 20 mM HEPES (pH 7.4).
Total uptake was determined by scraping the phthalocyanine-treated monolayer, collecting the cells on a glass-fiber filter, and extracting the phthalocyanine in ethanol, as previously described by Ramakrishnan, et al., 1989. (Ramakrishnan, N., M. E. Clay, M. F. Horng, A. R. Antunez, & H. H. Evans, "DNA Lesions and DNA Degradation in Mouse Lymphoma L5178Y Cells After Photodynamic Treatment Sensitized by Chloroaluminum Phthalocyanine",Photochem. Photobiol, in press, 1989). The amount of drug was determined by absorption at 674 nm and expressed relative to the number of cells, as measured in a Coulter cell counter on an aliquot of the cell population. Controls included cells not treated with drug, medium alone, and drug-containing medium without cells. The results of the total uptake of the various compositions of the present invention in comparison to AlPcCl are set forth below in Table 1.
The cells were treated with 1 μM AlPcCl (from Eastman Kodak, Rochester, N.Y.) or with phthalocyanine compositions I-VI (0.5-1.0 μM final concentration in the medium) for 18 hours by adding the appropriate volume of a 1.0 mM stock solution in dimethylformamide (DMF) to the culture medium. The growth medium was replaced with 4 ml Hank's balanced salt solution (HBSS), and the cells were irradiated. The light source was a 500 W tungsten-halogen lamp located approximately 29 inches below the surface of a glass exposure tray. The visible light administered to the cells was filtered to allow passage of only that portion of the visible spectrum above 600 nm (Lee Primary red filter No. 106, Vincent Lighting, Cleveland, Ohio). The fluence rate was approximately 0.074 kJ/m^2 /s at the level of the cell monolayer.
All of the compounds have been examined for the extent of cellular uptake after exposure of V79 cells to 1 μM or less in complete medium, and the data of Table 1 are presented relative to the uptake from 1 μM AlPcCl, which was 0.723±0.172 nmole/10^7 cells (mean ±S. D., 25 determinations). […] In particular, when the concentration of Compound IV was 1 μM in the medium, the uptake into the cells was sufficiently high that some of the uptake and phototoxicity studies were repeated at 0.5 μM.

## CN(C)CCC[Si](C)(C)O[Si]1(O)n2c3c4ccccc4c2N=C2N=C(N=c4c5ccccc5c(n41)=NC1=NC(=N3)c3ccccc31)c1ccccc12 (stereo not shown) [Compound IV, HOSiPcOsi(CH3)2)(CH2)3 N(CH3)2]
L5178Y-R (LY-R) cells; 0.5 μM, from Table 5
  activity relative to PcXII: about 80%
L5178Y-R (LY-R) cells; 0.5 μM, fluence reducing survival to 10%
  LD 90: 2.15 kJ/m^2
L5178Y-R (LY-R) cells; 0.5 μM, fluence reducing survival to 50%
  LD50: 1.38 kJ/m^2
L5178Y-R (LY-R) cells; 0.5 μM, listed as PcIV
  photosensitizer activity in LY-R cells (in words): active photosensitizers; also recorded: most active
L5178Y-R (LY-R) cells; 0 kJ/m^2
  viability at 0.5 µM: 100%
L5178Y-R (LY-R) cells; 1 kJ/m^2
  viability at 0.5 µM: 80.9%
L5178Y-R (LY-R) cells; 2 kJ/m^2
  viability at 0.5 µM: 19.7%
L5178Y-R (LY-R) cells; 2.5 kJ/m^2
  viability at 0.5 µM: 0.82%
L5178Y-R (LY-R) cells; 3 kJ/m^2
  viability at 0.5 µM: 0.16%
L5178Y-R (LY-R) cells; 5 kJ/m^2
  viability at 0.5 µM: 0.014%
[1]; 0.5 μM
  Uptake, efficiency relative to 1 μM AlPcCl: 1.3
[1]; 1.0 μM
  Uptake, efficiency relative to 1 μM AlPcCl: 1.64
[1]; V79 cells, 1 μM or less, compared with AlPcCl
  cellular uptake (in words): taken up into the cells more efficiently than was AlPcCl
